In patent US20260001871A1, “TRIAZOLE DERIVATIVES AS MODULATORS OF MAS-RELATED G-PROTEIN RECEPTOR D” (ESCIENT PHARMACEUTICALS, INC., priority 2022, published 2026):

Target: human MRGPRD (Homo sapiens, UniProt Q8TDS7)
Experiment: MRGPRD antagonist activity, IP-One HTRF assay in CHO cells stably expressing human MRGPRD (versus 100 μM β-Alanine agonist)
Assay type: cell-based
Method: Chinese Hamster Ovary (CHO) cells stably expressing human MRGPRD (Eurofins, San Diego CA) were plated in a 384-well plate at 20,000 cells per well in 12 μL of Optimem (Fisher Scientific 11-058-021). Plates were kept in the incubator at 37° C. overnight. Antagonists were solubilized at a concentration of 10 mM in DMSO, and the agonists were solubilized to stock concentrations of either 50 mM in H2O (β-Alanine) or 10 mM in DMSO (all others) and then diluted in assay buffer (final concentrations of 5.7 mM Tris-HCl, 43 mM NaCl, 50 mM LiCl, pH=8). The concentration of DMSO was normalized across the plate. Antagonists were added to the plate using a Tecan D300 Digital Dispenser at nanoliter/picoliter volumes and 2 μL of agonists in assay buffer were added to each well for a final assay volume of 14 μL. Plates were covered and incubated for 1 h at 37° C. and then for 1 h at room temperature. IP-1 standards and HTRF detection reagents were added according to an IP-One—Gq Kit purchased from Cisbio (part number 621PAPEJ) and incubated in the dark for 1 h at room temperature. Assay plates were read on either a Molecular Devices SpectraMax iD5 plate reader or a BMG ClarioStar plate reader. The HTRF ratio was calculated form the raw data and graphed using GraphPad Prism to calculate IC50 values. Data are expressed as average IC50 values and average percent antagonism calculated as a percent of the maximum efficacy response. For these studies, the variability of the data was assessed by determining the standard error of mean (SEM).
The activity ranges are denoted as follows: “+++++” denotes antagonist activity<100 nM; “++++” denotes antagonist activity between 100 and 500 nM; “+++” denotes activity between 500 and 1000 nM; “++” denotes activity between 1000 and 3000 nM; and “+” denotes activity>3000 nM.

Chain of human MRGPRD (Q8TDS7 whole entry): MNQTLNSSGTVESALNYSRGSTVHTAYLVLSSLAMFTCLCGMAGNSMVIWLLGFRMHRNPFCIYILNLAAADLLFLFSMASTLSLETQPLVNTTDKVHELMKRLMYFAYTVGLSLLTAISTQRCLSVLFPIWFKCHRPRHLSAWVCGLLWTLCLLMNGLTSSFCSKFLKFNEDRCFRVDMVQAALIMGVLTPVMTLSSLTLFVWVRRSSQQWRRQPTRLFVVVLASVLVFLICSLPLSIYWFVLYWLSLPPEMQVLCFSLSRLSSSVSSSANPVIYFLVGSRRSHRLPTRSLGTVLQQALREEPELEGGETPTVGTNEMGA

IC50 [nM] | Compound
< 100 | O=C(Nc1ccncc1)c1nnn(-c2ccc(-c3cnn(Cc4ccccc4)c3)cc2)c1C1CC1 [Compound 7-20]
100 to 500 | Cc1cc(NC(=O)c2nnn(-c3ccc(-c4ccccc4)cc3F)c2C2CC2)ccn1 [Compound 7-21]
100 to 500 | N#Cc1ccc(-c2ccc(-n3nnc(C(=O)Nc4ccncc4)c3C3CC3)cc2)cc1F [Compound 7-22]
100 to 500 | N#CCc1ccc(-c2ccc(-n3nnc(C(=O)Nc4ccncc4)c3C3CC3)cc2)cc1 [Compound 7-23]
100 to 500 | COc1cc(C#N)ccc1-c1ccc(-n2nnc(C(=O)Nc3ccncc3)c2C2CC2)cc1 [Compound 7-24]
100 to 500 | O=C(Nc1ccncc1)c1nnn(-c2ccc(-c3cnn4c3CCC4)cc2)c1C1CC1 [Compound 7-25]
100 to 500 | Cc1c(-c2ccc(-n3nnc(C(=O)Nc4ccncc4)c3C3CC3)cc2)cnn1-c1ccccc1 [Compound 7-26]
100 to 500 | COc1ccc(-c2ccc(-n3nnc(C(=O)Nc4ccncc4)c3C3CC3)cc2)cc1 [Compound 7-27]
100 to 500 | O=C(Nc1ccncc1)c1nnn(-c2ccc(-c3ccc(C(F)F)cc3)cc2)c1C1CC1 [Compound 7-28]
100 to 500 | O=C(Nc1ccncc1)c1nnn(-c2ccc(-c3cnn(Cc4cccs4)c3)cc2)c1C1CC1 [Compound 7-29]
100 to 500 | N#CCc1cccc(-c2ccc(-n3nnc(C(=O)Nc4ccncc4)c3C3CC3)cc2)c1 [Compound 7-30]
100 to 500 | Cc1nn2cccnc2c1-c1ccc(-n2nnc(C(=O)Nc3ccncc3)c2C2CC2)cc1 [Compound 7-31]
100 to 500 | O=C(Nc1ccncc1)c1nnn(-c2ccc(-c3ccoc3)cc2)c1C1CC1 [Compound 7-32]
100 to 500 | Cc1nn(C)c(C)c1-c1ccc(-n2nnc(C(=O)Nc3ccncc3)c2C2CC2)cc1 [Compound 7-33]
100 to 500 | COc1ccc(-c2ccc(-n3nnc(C(=O)Nc4ccncc4)c3C3CC3)cc2)c(C)c1 [Compound 7-34]
100 to 500 | COc1ccc(-c2ccc(-n3nnc(C(=O)Nc4ccncc4)c3C3CC3)cc2)c(F)c1 [Compound 7-35]
100 to 500 | CN(C)c1cccc(-c2ccc(-n3nnc(C(=O)Nc4ccncc4)c3C3CC3)cc2)c1 [Compound 7-36]
100 to 500 | CC(C)c1cccc(-c2ccc(-n3nnc(C(=O)Nc4ccncc4)c3C3CC3)cc2)c1 [Compound 7-37]
100 to 500 | Cc1cc(NC(=O)c2nnn(-c3ccc(-c4ccc(C#N)nc4)cc3)c2C2CC2)ccn1 [Compound 7-38]
100 to 500 | N#Cc1ccc(-c2ccc(-n3nnc(C(=O)Nc4ccncc4)c3C3CC3)cc2)cc1 [Compound 7-39]
100 to 500 | Cc1noc(C)c1-c1ccc(-n2nnc(C(=O)Nc3ccncc3)c2C2CC2)cc1 [Compound 7-40]
100 to 500 | O=C(Nc1ccncc1)c1nnn(-c2ccc(-c3cc[nH]n3)cc2)c1C1CC1 [Compound 7-41]
100 to 500 | CC(=O)c1ccc(-c2ccc(-n3nnc(C(=O)Nc4ccncc4)c3C3CC3)cc2)c(C)c1 [Compound 7-42]

IC50 [nM] | Compound
100 to 500 | CN(C)S(=O)(=O)n1ccc(-c2ccc(-n3nnc(C(=O)Nc4ccncc4)c3C3CC3)cc2)n1 [Compound 7-43]
100 to 500 | Cc1ccc(-c2ccc(-n3nnc(C(=O)Nc4ccncc4)c3C3CC3)cc2)cc1 [Compound 7-44]
100 to 500 | Cc1oncc1-c1ccc(-n2nnc(C(=O)Nc3ccncc3)c2C2CC2)cc1 [Compound 7-45]
100 to 500 | COCc1ccc(-c2ccc(-n3nnc(C(=O)Nc4ccncc4)c3C3CC3)cc2)cc1 [Compound 7-46]
100 to 500 | Cc1c(-c2ccc(-n3nnc(C(=O)Nc4ccncc4)c3C3CC3)cc2)c(C(F)(F)F)nn1C [Compound 7-47]
100 to 500 | COc1cc(C#N)ccc1-c1ccc(-n2nnc(C(=O)NCc3ccc(C)nc3)c2C2CC2)cc1 [Compound 7-48]
100 to 500 | CC(=O)c1ccc(-c2ccc(-n3nnc(C(=O)Nc4ccncc4)c3C3CC3)cc2)cc1 [Compound 7-49]
100 to 500 | Cc1c(-c2ccc(-n3nnc(C(=O)Nc4ccncc4)c3C3CC3)cc2)cnn1C [Compound 7-50]
100 to 500 | Cc1cc(NC(=O)c2nnn(-c3ccc(-c4ccc(C#N)cc4C)cc3)c2C2CC2)ccn1 [Compound 7-52]
100 to 500 | Cc1cc(NC(=O)c2nnn(-c3ccc(-c4ccc(C#N)cc4)cc3OC(F)(F)F)c2C2CC2)ccn1 [Compound 7-53]
100 to 500 | N#Cc1ccc(-c2ccc(-n3nnc(C(=O)Nc4ccncc4)c3C3CC3)cc2)c(F)c1 [Compound 7-54]
100 to 500 | Cn1ccc(-c2ccc(-n3nnc(C(=O)Nc4ccncc4)c3C3CC3)cc2)c1 [Compound 7-55]
100 to 500 | O=C(Nc1ccncc1)c1nnn(-c2ccc(-c3cccc(C4CC4)c3)cc2)c1C1CC1 [Compound 7-56]
100 to 500 | Cc1nocc1-c1ccc(-n2nnc(C(=O)Nc3ccncc3)c2C2CC2)cc1 [Compound 7-57]
100 to 500 | O=C(Nc1ccncc1)c1nnn(-c2ccc(-c3ccc(O)cc3)cc2)c1C1CC1 [Compound 7-58]
100 to 500 | O=C(Nc1ccncc1)c1nnn(-c2ccc(-c3ccc(CC(F)(F)F)cc3)cc2)c1C1CC1 [Compound 7-59]
100 to 500 | Cc1cc(-c2ccc(-n3nnc(C(=O)Nc4ccncc4)c3C3CC3)cc2)ccc1C#N [Compound 7-60]
100 to 500 | Cc1cc(NC(=O)c2nnn(-c3ccc(-c4ccc(C#N)cc4)cc3)c2C2CC2)ccn1 [Compound 7-61]
100 to 500 | O=C(Nc1ccncc1)c1nnn(-c2ccc(-c3cnn(C4CCC4)c3)cc2)c1C1CC1 [Compound 7-62]
100 to 500 | O=C(Nc1ccncc1)c1nnn(-c2ccc(-c3cnn(C4CCCC4)c3)cc2)c1C1CC1 [Compound 7-63]
100 to 500 | O=C(Nc1ccncc1)c1nnn(-c2ccc(-c3ccc4c(c3)CCC4)cc2)c1C1CC1 [Compound 7-64]
100 to 500 | O=C(Nc1ccncc1)c1nnn(-c2ccc(-c3ccc(F)cc3)cc2)c1C1CC1 [Compound 7-65]
100 to 500 | O=C(Nc1ccncc1)c1nnn(-c2ccc(-c3ccc(C(F)(F)F)cc3)cc2)c1C1CC1 [Compound 7-66]

IC50 [nM] | Compound
100 to 500 | CC(C)C(=O)c1cccc(-c2ccc(-n3nnc(C(=O)Nc4ccncc4)c3C3CC3)cc2)c1 [Compound 7-67]
100 to 500 | Cn1nc(-c2ccccc2)cc1-c1ccc(-n2nnc(C(=O)Nc3ccncc3)c2C2CC2)cc1 [Compound 7-68]
100 to 500 | O=C(Nc1ccncc1)c1nnn(-c2ccc(-c3ccc(CO)cc3)cc2)c1C1CC1 [Compound 7-69]
100 to 500 | COc1cc(-c2ccc(-n3nnc(C(=O)Nc4ccncc4)c3C3CC3)cc2)ccc1C#N [Compound 7-70]
100 to 500 | CS(=O)(=O)c1cccc(-c2ccc(-n3nnc(C(=O)Nc4ccncc4)c3C3CC3)cc2)c1 [Compound 7-71]
100 to 500 | Cc1nn(C)cc1-c1ccc(-n2nnc(C(=O)Nc3ccncc3)c2C2CC2)cc1 [Compound 7-72]
100 to 500 | Cc1cnn(C)c1-c1ccc(-n2nnc(C(=O)Nc3ccncc3)c2C2CC2)cc1 [Compound 7-73]
100 to 500 | CC(C)C(=O)c1ccc(-c2ccc(-n3nnc(C(=O)Nc4ccncc4)c3C3CC3)cc2)cc1 [Compound 7-74]
100 to 500 | CC(=O)c1ccc(-c2ccc(-n3nnc(C(=O)Nc4ccncc4)c3C3CC3)cc2)c(F)c1 [Compound 7-75]
100 to 500 | Cc1cc(NC(=O)c2nnn(-c3ccc(-c4ccccc4)cc3)c2C2CC2)ccn1 [Compound 7-76]
100 to 500 | O=C(Nc1ccncc1)c1nnn(-c2ccc(-c3ccc[nH]3)cc2)c1C1CC1 [Compound 7-77]
100 to 500 | Cn1ncc(-c2ccc(-n3nnc(C(=O)Nc4ccncc4)c3C3CC3)cc2)n1 [Compound 7-78]
100 to 500 | O=C(Nc1ccncc1)c1nnn(-c2ccc(-c3cnsc3)cc2)c1C1CC1 [Compound 7-79]
100 to 500 | CC(=O)c1cccc(-c2ccc(-n3nnc(C(=O)Nc4ccncc4)c3C3CC3)cc2)c1 [Compound 7-80]
100 to 500 | Cc1cc(NC(=O)c2nnn(-c3ccc(-c4ccc(F)cc4)cc3)c2C2CC2)ccn1 [Compound 7-81]
100 to 500 | Cc1cc(NC(=O)c2nnn(-c3ccc(-c4ccccc4)cc3OC(F)(F)F)c2C2CC2)ccn1 [Compound 7-82]
100 to 500 | CC(O)c1ccc(-c2ccc(-n3nnc(C(=O)Nc4ccncc4)c3C3CC3)cc2)cc1 (stereo not drawn) [Compound 7-83]
100 to 500 | COc1ccc(-c2ccc(-n3nnc(C(=O)Nc4ccncc4)c3C3CC3)cc2)cc1C [Compound 7-84]
100 to 500 | CC(=O)c1cccc(-c2ccc(-n3nnc(C(=O)Nc4ccncc4)c3C3CC3)cc2)c1F [Compound 7-85]
100 to 500 | CCCn1cc(-c2ccc(-n3nnc(C(=O)Nc4ccncc4)c3C3CC3)cc2)cn1 [Compound 7-86]
100 to 500 | Cc1cc(NC(=O)c2nnn(-c3ccc(-c4ccc(C#N)c(F)c4)cc3)c2C2CC2)cc(C)n1 [Compound 7-87]
100 to 500 | O=C(Nc1ccncc1)c1nnn(-c2ccc(-c3cnn(C4CC4)c3)cc2)c1C1CC1 [Compound 7-88]
100 to 500 | Cc1cnc(-c2ccc(-n3nnc(C(=O)Nc4ccncc4)c3C3CC3)cc2)s1 [Compound 7-89]
